Here are results for two compounds from patent US20250249012A1, “COMPOSITIONS AND METHODS FOR TREATING AND/OR PREVENTING A VIRAL INFECTION” (priority 2022, published 2025).

Data set [1] relates to Vero-E6 cells. The conditions noted are these: 20 hours post infection.
A short description of data set [2]: Pharmacokinetics in plasma. The data set is classed as in vivo.
A short description of data set [3]: Solubility of Apilimod and Nafamostat in different vehicles (visible precipitate). Type of data set: physicochemical. The conditions noted are these: for precipitate in solution: 1 mg/ml Apilimod di-mesylate, 2 mg/ml Nafamostat mesylate, 12 hours at room temperature, also seen after centrifugation; for solubility in deionized water: mixed and dissolved in deionized (MilliQ) water; for solubility in solutions containing salt: phosphate buffer saline (PBS) or DMEM cell culture medium, particularly when together. The text has this:
FIGS. 1A-1B show the solubility of Apilimod and Nafamostat in different vehicles. […] Magnified images of the boxed areas are shown on the right panels.
This is the reason why our drug mixtures were made in deionized (MilliQ) water as stocks and for intranasal administration. While the mouse nose tolerates exposure to deionized (MilliQ) water, for humans it may be necessary to adjust the osmolarity of the solution, for example by adding sucrose.

Data set [4] has as its system A549-ACE2-TMPRSS2GFP cells. The conditions noted are these: 20 hours post infection.

Counter-ions that a name gives are not always drawn. Like-named read-outs stand apart in the source and are kept apart here.

With “N-[(E)-(3-methylphenyl)methylidencamino]-6-morpholin-4-yl-2-(2-pyridin-2-ylethoxy)pyrimidin-4-amine [Apilimod dimesylate]”, the “number of cells, normalized to vehicle-treated infected cells” value in data set [1] (drug stock prepared in DMEM) and in data set [1] (drug stock prepared in PBS) was “Significant loss of cells” each time. Besides, in data set [2], the half-life in plasma entry was “relatively short half-life times (minutes)”. In addition, the precipitate in solution result in data set [3] (in DMEM) and in data set [3] (in PBS) was “a precipitate is observable” in each case. In data set [3], the “solubility in deionized water” value is on record as “substantially increased”. In addition, in data set [3], the “solubility in solutions containing salt” value was “relatively insoluble and precipitate”.
In the case of `N=C(N)c1ccc2cc(OC(=O)c3ccc(N=C(N)N)cc3)ccc2c1` [Nafamostat mesylate], in data set [2], the half-life in plasma result is “relatively short half-life times (minutes)”. Besides, the precipitate in solution result in data set [3] (in DMEM) and in data set [3] (in PBS) was “a precipitate is observable” each time. The “solubility in deionized water” value in data set [3] is “substantially increased”. Besides, in data set [3], the “solubility in solutions containing salt” value is “relatively insoluble and precipitate”. In addition, the “number of cells, normalized to vehicle-treated infected cells” value in data set [4] (drug stock prepared in DMEM) and in data set [4] (drug stock prepared in PBS) was “Significant loss of cells” each time.
